Experimental findings from patent US9988379B2, “GPR40 receptor agonist, methods of preparing the same, and pharmaceutical compositions containing the same as an active agent” (LG CHEM, LTD., priority 2012, dated 2018) are described below.

A value given as a limit tells only on which side of the number the result lay.

The target in this test is T1, human GPR40 (Homo sapiens, UniProt O14842).
T1 construct: expressed in transfected cells; host or cells: CHO-K1
T1 sequence (O14842 whole entry): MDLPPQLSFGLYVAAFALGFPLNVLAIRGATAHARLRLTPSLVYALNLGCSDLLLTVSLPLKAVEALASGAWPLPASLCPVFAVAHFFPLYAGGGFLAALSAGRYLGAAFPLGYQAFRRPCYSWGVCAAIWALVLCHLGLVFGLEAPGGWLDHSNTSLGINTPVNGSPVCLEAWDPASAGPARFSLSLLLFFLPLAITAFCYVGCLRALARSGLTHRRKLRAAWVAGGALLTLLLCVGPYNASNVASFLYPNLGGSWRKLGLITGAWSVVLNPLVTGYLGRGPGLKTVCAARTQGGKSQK
Kind of test: Induction of Ca2+ (calcium flux assay) using human GPR40 expression cell line. The test is classed as cell-based. To be noted: read-out: EC0.5. As for the experimental part: Evaluation of the Test Compounds for Induction of Ca^2+ Using Human GPR40 Expression Cell Line
The cell line expressing human GPR40 was generated by transfection of the GPR40 expression vector into CHO-K1 cell, and used in the following calcium flux assay.
The cell line was cultured in cell-culture medium (F-12 (Invitrogen) supplemented with 10% (v/v) FBS (Fetal Bovine Serum; Invitrogen), 0.5 mg/ml Geneticin (Invitrogen) and 1% (v/v) Antibiotic-Antimycotic solution (Invitrogen)) under the condition of 5% CO2 and 37° C. For calcium flux assay, the cells were diluted with the cell-culture medium to a concentration of 5×10^5 cells/ml, and the diluted cell suspension was dispensed in amount of 100 μl/well to a 96-well transparent bottom black polystyrene cell culture plate (Corning) and then cultured for 24 hours. The following concentrations of test compounds were added to these cells, and then the changes in intracellular calcium concentration were measured by FlexStation II384 (Molecular Devices). The following solution was prepared before the measurement.
First, a buffer solution for assay was prepared for use in the manufacture of fluorescent dye solution. This buffer solution was prepared by adding 1M HEPES solution (Invitrogen) to HBSS (Hanks' Balanced Salt Solution) (Invitrogen) and then adding 1M NaOH (Nacalai Tesque) to adjust pH to 7.4. Then the fluorescent dye solution was prepared according to the manufacturer's instruction attached to Calcium 5 Assay Kit (Molecular Devices), and the final DMSO concentration was adjusted to 2%.
The fluorescent dye solution was added in an amount of 100 μl/well to supernatant of the cell culture plate cultured for 24 hours. The plate was cultured for 1 hour under the condition of 5% CO2 and 37° C. so that the fluorescent dye was inserted into the cell.
Test compounds (i.e., the compounds prepared in the Examples) dissolved in dimethyl sulfoxide (DMSO ACROS) were diluted 200-fold in the buffer solution for assay to prepare compound solutions corresponding to the respective concentrations. […] 50 μl of the prepared sample solutions was added to each well of 96-well polypropylene plates (NUNC), and thereby a compound plate was prepared. Finally, the compound plate and the cell culture plate cultured for 1 hour with the fluorescent dye were placed in FlexStation II384.
After the above pre-treatment, the change in the intracellular calcium concentration when each concentration of the test compound solutions was added at 50 μl was measured by FlexStation II^384.
Then, the relative activity values depending on the concentration of the compound were plotted using Prism 4 software (GraphPad) to calculate the EC0.5 value.
Turning to `Cc1cc(F)ccc1-n1ccc2cc(F)c(COc3ccc(CCC(=O)O)cc3)cc21` [Example 23, 3-{4-[5-fluoro-1-(4-fluoro-2-methyl-phenyl)-1H-indol-6-ylmethoxy)-phenyl]-propanoic acid], the EC50 came out at 4 nM.

In the case of `CC#C[C@@H](CC(=O)O)c1ccc(OCc2ccc3ccn(Cc4cccc(CS(C)(=O)=O)c4)c3c2C)cc1` [Example 35, (S)-3-{4-[1-(3-methanesulfonylmethyl-benzyl)-7-methyl-1H-indol-6-ylmethoxy]-phenyl}-hex-4-ynoic acid], the EC50 stood at 10 nM.

With `O=C(O)CCc1ccc(OCc2ccc3ccn(Cc4ccccc4)c3c2Cl)cc1` [Example 18, 3-[4-(1-benzyl-7-chloro-1H-indol-6-ylmethoxy)-phenyl]-propanoic acid], the EC50 came to 90 nM.

On to `O=C(O)CCc1ccc(NCc2ccc3ccn(Cc4ccccc4)c3c2Cl)cc1` [Example 7, 3-{4-[(1-benzyl-7-chloro-1H-indol-6-ylmethyl)-amino]-phenyl}-propanoic acid], for which the EC50 came out at 20 nM. As for `CC#C[C@@H](CC(=O)O)c1ccc(OCc2ccc3cnn(Cc4cnn(C)c4)c3c2)cc1` [Example 82, (S)-3-{4-[1-(1-methyl-1H-pyrazol-4-ylmethyl)-1H-indazol-6-ylmethoxy]-phenyl}-hex-4-ynoic acid], the EC50 fell in the range of 50 to 500 nM. Consider `CC#C[C@@H](CC(=O)O)c1ccc(OCc2cnc3c(ccn3Cc3ccccc3)c2)cc1` [Example 143, (S)-3-[4-(1-benzyl-1H-pyrrolo[2,3-b]pyridin-5-ylmethoxy)-phenyl]-hex-4-ynoic acid], for which the EC50 fell in the range of 1 to 50 nM. `CC#C[C@@H](CC(=O)O)c1ccc(OCc2ccc3cnn(Cc4ccccc4)c3c2)cc1` [Example 59, (S)-3-[4-(1-benzyl-1H-indazol-6-ylmethoxy)-phenyl]-hex-4-ynoic acid]: the EC50 is 1 to 50 nM.

Regarding `CC#C[C@@H](CC(=O)O)c1ccc(OCc2ccc3c(cnn3Cc3cccnc3)c2)cc1` [Example 147, (S)-3-[4-(1-pyridin-3-ylmethyl-1H-indazol-5-ylmethoxy)-phenyl]-hex-4-ynoic acid], the EC50 lay within 1 to 50 nM. For `CC#C[C@@H](CC(=O)O)c1ccc(OCc2cnc3c(ccn3CC(C)C)c2)cc1` [Example 144, (S)-3-[4-(1-isobutyl-1H-pyrrolo[2,3-b]pyridin-5-ylmethoxy)-phenyl]-hex-4-ynoic acid], the EC50 is 1 to 50 nM. With `CC#C[C@@H](CC(=O)O)c1ccc(OCc2ccnc3c2c(F)cn3CC(C)C)cc1` [Example 225, (S)-3-[4-(3-fluoro-1-isobutyl-1H-pyrrolo[2,3-b]pyridin-4-ylmethoxy)-phenyl]-hex-4-ynoic acid] the figure was 13 nM. Consider `CC#C[C@@H](CC(=O)O)c1ccc(OCc2ccc3ccn(Cc4cnccn4)c3c2C)cc1` [Example 60, (S)-3-[4-(7-methyl-1-pyrazin-2-ylmethyl-1H-indol-6-ylmethoxy)-phenyl]-hex-4-ynoic acid], for which the EC50 was in the range of 1 to 50 nM. In the case of `O=C(O)CCc1ccc(OCc2ccc3cnn(Cc4ccccc4)c3c2)cc1F` [Example 106, 3-[4-(1-benzyl-1H-indazol-6-ylmethoxy)-2-fluoro-phenyl]-propanoic acid], the EC50 was in the range of 1 to 50 nM. With `CC#C[C@@H](CC(=O)O)c1ccc(OCc2cc(C)c3c(cnn3CC3CCCC3)c2)cc1` [Example 169, (S)-3-[4-(1-cyclopentylmethyl-7-methyl-1H-indazol-5-ylmethoxy)-phenyl]-hex-4-ynoic acid] the figure was 1 to 50 nM; with `CC#C[C@@H](CC(=O)O)c1ccc(OCc2ccc(C)c3c2cnn3C(C)C)cc1` [Example 223, (S)-3-[4-(1-isopropyl-7-methyl-1H-indazol-4-ylmethoxy)-phenyl]-hex-4-ynoic acid], 11 nM. As to `Cc1cc(COc2ccc3c(c2)OCCC3CC(=O)O)cc2cnn(CC(C)C)c12` (centres unmarked) [Example 131, [7-(1-isobutyl-7-methyl-1H-indazol-5-ylmethoxy)-chroman-4-yl]-acetic acid], the EC50 lay within 50 to 500 nM.

`CC#C[C@@H](CC(=O)O)c1ccc(OCc2ccc3ccn(Cc4cccc(C(F)(F)F)c4)c3c2C)cc1` [Example 43, (S)-3-{4-[7-methyl-1-(3-trifluoromethyl-benzyl)-1H-indol-6-ylmethoxy]-phenyl}-hex-4-ynoic acid]: the EC50 is 50 to 500 nM. On to `CC#C[C@@H](CC(=O)O)c1ccc(OCc2ccc3cnn(CCC)c3c2C)cc1` [Example 221, (S)-3-[4-(7-methyl-1-propyl-1H-indazol-6-ylmethoxy)-phenyl]-hex-4-ynoic acid], for which the EC50 was determined as 5 nM. For `CC#C[C@@H](CC(=O)O)c1ccc(OCc2cccc3c(CC(C)C)nn(C)c23)cc1` [Example 207, (S)-3-[4-(3-isobutyl-1-methyl-1H-indazol-7-ylmethoxy)-phenyl]-hex-4-ynoic acid], the EC50 was 1 to 50 nM. For `O=C(O)C[C@@H](c1ccc(OCc2ccc3cnn(Cc4ccccc4)c3c2)cc1)c1ccon1` [Example 85, (S)-3-[4-(1-benzyl-1H-indazol-6-ylmethoxy)-phenyl]-3-isoxazol-3-yl-propanoic acid], the EC50 turned out to be 10 nM.

For `CC#C[C@@H](CC(=O)O)c1ccc(OCc2ccc3cnn(CC4(C)COC4)c3c2)cc1` [Example 177, (S)-3-{4-[1-(3-methyl-oxetan-3-ylmethyl)-1H-indazol-6-ylmethoxy]-phenyl}-hex-4-ynoic acid], the EC50 fell in the range of 1 to 50 nM. With `CC#C[C@@H](CC(=O)O)c1ccc(OCc2ccc3ccn(Cc4cccc(F)c4)c3c2C)cc1` [Example 42, (S)-3-{4-[1-(3-fluoro-benzyl)-7-methyl-1H-indol-6-ylmethoxy]-phenyl}-hex-4-ynoic acid] the figure was 50 to 500 nM. As for `CC#C[C@@H](CC(=O)O)c1ccc(OCc2ccc3c(c2)c(C)nn3CC(C)C)cc1` [Example 170, (S)-3-[4-(1-isobutyl-3-methyl-1H-indazol-5-ylmethoxy)-phenyl]-hex-4-ynoic acid], the EC50 fell in the range of 1 to 50 nM. As to `Cc1c(COc2ccc3c(c2)OCCC3CC(=O)O)ccc2ccn(Cc3ccccc3)c12` (centres unmarked) [Example 145, [7-(1-benzyl-7-methyl-1H-indol-6-ylmethoxy)-chroman-4-yl]-acetic acid], the EC50 was 40 nM. Turning to `CC#C[C@@H](CC(=O)O)c1ccc(OCc2ccc3ccn(Cc4cnn(C)c4)c3c2C)cc1` [Example 63, (S)-3-{4-[7-methyl-1-(1-methyl-1H-pyrazol-4-ylmethyl)-1H-indol-6-ylmethoxy)-phenyl]-hex-4-ynoic acid], the EC50 lay within 1 to 50 nM. Regarding `CC(C)Cn1ncc2cc(COc3ccc4c(c3)OCCC4CC(=O)O)ccc21` (centres unmarked) [Example 133, [7-(1-isobutyl-1H-indazol-5-ylmethoxy)-chroman-4-yl]-acetic acid], the EC50 came out at 400 nM. Turning to `O=C(O)CCc1ccc(OCc2ccc3ccn(-c4ccsc4)c3c2)cc1` [Example 13, 3-[4-(1-thiophen-3-yl-1H-indol-6-ylmethoxy)-phenyl]-propanoic acid], the EC50 is 20 nM. With `O=C(O)CC1CCOc2cc(OCc3ccc4c(cnn4Cc4cccnc4)c3)ccc21` (centres unmarked) [Example 148, [7-(1-pyridin-3-ylmethyl-1H-indazol-5-ylmethoxy)-chroman-4-yl]-acetic acid], the EC50 is at least 500 nM.

On to `Cc1cc(F)ccc1-n1ccc2ccc(COc3ccc4c(c3)OCC4CC(=O)O)cc21` (centres unmarked) [Example 24, {6-[1-(4-fluoro-2-methyl-phenyl)-1H-indol-6-ylmethoxy]-2,3-dihydro-benzofuran-3-yl}-acetic acid], for which the EC50 came out at 20 nM. `CC#C[C@@H](CC(=O)O)c1ccc(OCc2ccc3cnn(Cc4cccnc4)c3c2C)cc1` [Example 226, (S)-3-[4-(7-methyl-1-pyridin-3-ylmethyl-1H-indazol-6-ylmethoxy)-phenyl]-hex-4-ynoic acid]: the EC50 came out at 9 nM. Regarding `CC#C[C@@H](CC(=O)O)c1ccc(OCc2ccc3cnn(Cc4ccc(F)cc4)c3c2)cc1` [Example 66, (S)-3-{4-[1-(4-fluoro-benzyl)-1H-indazol-6-ylmethoxy]-phenyl}-hex-4-ynoic acid], the EC50 is 10 nM.

On to `O=C(O)C[C@@H](c1ccc(OCc2cccc3c2cnn3Cc2ccccc2)cc1)c1ccon1` [Example 94, (S)-3-[4-(1-benzyl-1H-indazol-4-ylmethoxy)-phenyl]-3-isoxazol-3-yl-propanoic acid], for which the EC50 was found to be 60 nM.

On to `Cn1ncc2ccc(COc3ccc([C@H](CC(=O)O)c4ccon4)cc3)cc21` [Example 101, (S)-3-isoxazol-3-yl-3-[4-(1-methyl-1H-indazol-6-ylmethoxy)-phenyl]-propanoic acid], for which the EC50 turned out to be 90 nM.
